{"source": "patent EP4772500A1", "about": "“NOVEL ISOXAZOLE COMPOUND AS TM4SF5-SPECIFIC INHIBITOR AND USE THEREOF” (Seoul National University R&DB Foundation, priority 2023, dated 2025)", "key": {"[1]": {"system": "TM4SF5-expressing cells (SNU449T7)", "test": "2D cell growth/proliferation", "format": "cell-based, human", "conditions": "2D environment, drug every 24 hours (FIG. 3a)", "description": "The drugs treated were the positive control drug TSAHC or the ST-1-025 isoxazole compound at the given concentrations. From the time of starting culture (0 day), (FIG. 3a) in the case of 2D culture, the number of cells was measured after treating with the drug every 24 hours, or (FIG. 3b) in a 3D environment, the proliferation of cells (spheres) was observed and photographed with an optical microscope on the 5th and 7th days after a single drug treatment at the start of culture."}, "[2]": {"system": "SNU449T7 cells", "test": "Subcutaneous xenograft liver cancer model in severely combined immunodeficient animals", "format": "in vivo, NOD-SCID mice", "description": "Cells expressing TM4SF5 (SNU449T7) were cultured in a cell incubator at 37°C and 5% CO2. The next day, the cells were detached by treating with a T/E (Trypsin/EDTA) solution and centrifuged at 150 × g for 3 minutes to obtain a cell pellet. Thereafter, the supernatant was removed, and the pellet was prepared by resuspension in phosphate buffered saline (PBS). For the generation of cancer tissue, 5 × 10^5 cells/100 µl were injected once subcutaneously into the right thigh area of 6-week-old male NOD/SCID mice. At this time, the animals were anesthetized by inhalation with […] isoflurane and injected. From the 15th day after the cell injection, drug ST-5-002 was intraperitoneally injected at 2.5 mg/kg of body weight at 100 µl per dose for a total of 8 times every 3 days. The body weight and tumor volume of the animals were measured every 3 days from the 12th day after the cell injection. The tumor volume was calculated as (length × width × width)/2 (mm^3) by measuring the length and width of the tumor. On the 36th day after the cell (SNU449T7) injection, the animals were sacrificed, and cancer tissues were obtained and analyzed.\nSNU449T7 cells were subcutaneously injected into the thighs of 6-week-old male NOD/CB17-Prkdc^scid/J mice (NOD-SCID mice lacking or having non-functional immune cells such as T cells, B cells, and NK cells, n=10), at a dose of 5X10^5 cells. One week later, vehicle or the drug ST-5-002 was intravenously injected at a concentration of 2.5 mg/kg of body weight (mpk) twice a week. Three days after the 8th drug injection, the animals were sacrificed, cancer tissues were recovered and photographed, and immunohistochemistry, Western blot, and qRT-PCR analyses were performed."}, "[3]": {"system": "SNU761 cells expressing HA-TM4SF5 and FLAG-SLAMF7", "test": "Immunofluorescence microscopy of SLAMF7 localization (Pearson's correlation)", "format": "cell-based, human", "conditions": "2.5 µM, 24 h, vs DMSO (FIG. 15g-h)", "description": "After putting a cover glass into each well of a 12-well plate, 10 µg/ml fibronectin (35600, BD Biosciences) diluted in PBS was added thereto and left at room temperature for 1 hour for coating. After washing three times with PBS, 20,000 cells were seeded on each cover glass and cultured in a cell incubator at 37°C for 16 hours. After cultivation, the various expression vectors mentioned above were transfected using Lipofectamine 3000 (L3000015, Invitrogen) and cultured for 24 hours, and then isoxazole was treated or not treated for 24 hours. The cells were fixed with cold 99% methanol at room temperature for 15 minutes and then blocked with 1% BSA in PBS for 1 hour. Primary antibodies, anti-FLAG (NB600-344, Novus Biologicals), anti-LAMP1 (#9091, Cell Signaling Tech,), anti-ZO-1 (402200, Invitrogen), anti-HA (901515, BioLegend), and anti-SLAMF7 (sc-390840, Santa Cruz Biotech.), were diluted in 1% BSA in PBS at a ratio of 1:500 and reacted at 4°C for 16 hours. The next day, the cover glasses were washed three times with PBS, and then fluorescence-conjugated secondary antibodies (Alexa Fluor 488 [goat: A11055 and mouse: A21202] and 555 [goat: A21432 and mouse: A31570] from Invitrogen) were diluted in 1% BSA in PBS at a ratio of 1:500 and reacted at room temperature for 1 hour. After washing three times with PBS, mounting was performed using ProLong™ Gold Antifade (P36930, Invitrogen). Cells were randomly photographed using a Nikon Eclipse Ti microscope with a C2 confocal system, and then the images were analyzed using NIS-Elements software (Nikon, Melville, NY, USA), and colocalization of SLAMF7 with LAMP1 or ZO-1 was calculated using Pearson's correlation coefficients. All images were photographed under the same software settings and equally corrected with Adobe Photoshop. Each dot in the graphs represents a result measured from a single cell.\nSNU449-TM4SF5 cells overexpressing TM4SF5 were seeded on cover glasses pre-coated with collagen Type I (10 µg/ml), and 15 hour later, PD-L1-HA cDNA was transfected using Lipofectamine 3000 (Thermo Fisher). […] After reacting again with secondary antibodies at room temperature for 30 minutes (TRITC fluorescence for LAMP1, TRITC or Alexa Fluor® 488 fluorescence for TM4SF5, and FITC fluorescence for PD-L1 or SLAMF7), the expression levels, localizations, and colocalizations (indicated in yellow) of the fluorescently-stained factors were observed using a confocal fluorescence microscope.\n(a) SNU761 cells expressing HA-EV or HA-TM4SF5 and FLAG-SLAMF7 were stored at 4°C and then cultured at 37°C for the given periods. […] The colocalization coefficient was calculated by Pearson's correlation (b). […]"}}, "data": [{"smiles": "COc1ccc(-c2cc(-c3ccc(N)cc3)no2)cc1", "note": "[ST-1-025, 4-(5-(4-methoxyphenyl)isoxazole-3-yl)aniline]", "values": [{"measurement": "growth or proliferation", "setting": "[1]", "value": "decreased"}]}, {"smiles": "Cc1ccc(S(=O)(=O)Nc2ccc(C(=O)/C=C/c3ccc(O)cc3)cc2)cc1", "note": "[TSAHC, 4'-(p-toluenesulfonylamino)-4-hydroxychalcone, reference compound]", "values": [{"measurement": "growth or proliferation", "setting": "[1]", "value": "decreased"}]}, {"smiles": "Cc1ccc(C(=O)Nc2ccc(-c3cc(-c4ccc(O)cc4)no3)cc2)cc1", "note": "[ST-5-002, N-(4-(3-(4-hydroxyphenyl)isoxazole-5-yl)phenyl)-4-methylbenzamide]", "values": [{"measurement": "inhibitory efficacy in cancer formation in terms of tumor volume and weight", "setting": "[2]; 2.5 mg/kg of body weight (mpk), 8 injections (FIG. 24c)", "value": "statistically significant inhibitory efficacy"}, {"measurement": "tumor size", "setting": "[2]; 2.5 mg/kg of body weight (mpk), 8 injections, vs vehicle (FIG. 24b)", "value": "decreased"}, {"measurement": "SLAMF7 staining in the small cancer areas", "setting": "[2]; immunostaining (FIG. 24d)", "value": "much more distinctly strong staining level"}, {"measurement": "degree of PD-L1 staining", "setting": "[2]; immunostaining (FIG. 24d)", "value": "decreased"}, {"measurement": "expression of TM4SF5", "setting": "[2]; immunostaining (FIG. 24d)", "value": "did not change significantly"}, {"measurement": "expressions of AFP and laminin γ2", "setting": "[2]; immunostaining (FIG. 24d)", "value": "significantly reduced"}, {"measurement": "staining level of F4/80 and expressions of CCL5 and CCL20", "setting": "[2]; immunostaining, vs control group (FIG. 24d)", "value": "lower"}, {"measurement": "SLAMF7 colocalized at the lysosomal membrane", "setting": "[3]", "value": "decreased"}, {"measurement": "SLAMF7 expression/localization at the plasma membrane (PM)", "setting": "[3]", "value": "rather increased"}]}, {"smiles": "CC(=O)Nc1ccc(-c2cc(-c3ccc(O)cc3)no2)cc1", "note": "[ST-5-001, N-(4-(3-(4-hydroxyphenyl)isoxazole-5-yl)phenyl)acetamide]", "values": [{"measurement": "SLAMF7 colocalized at the lysosomal membrane", "setting": "[3]", "value": "decreased"}, {"measurement": "SLAMF7 expression/localization at the plasma membrane (PM)", "setting": "[3]", "value": "rather increased"}]}]}
